The record followed here is patent US7915285B2, “Method for treating drug and behavioral addictions” (priority 2005, dated 2011).

Test [1] has as its system dopamine release in the nucleus accumbens. Kind of test: In vivo microdialysis of nucleus accumbens dopamine (Example 3). Also noted: species or system rat. The conditions noted are these: naloxone given after the 60 minute sample. Here is the method: Dopamine release in the nucleus accumbens is thought to mediate the “reward” associated with drugs of abuse. […] After 3 baseline samples (20 minute inter-sample interval), morphine was administered to all rats. Dialysis samples were collected at 20 minute intervals for 180 minutes. To test behavioral withdrawal and reversal of morphine-induced dopamine, all rats were administered the opioid antagonist naloxone after the 60 minute sample time was completed.

Test [2] deals with microglial activation marker CD11b. Kind of test: Brain immunohistochemistry and densitometry of microglial activation marker (Example 4). The format is in vivo, rat. The conditions noted are these: chronic morphine administration, FIG. 6.
Procedure: Immunoreactivity for OX-42 (antibody that recognizes complement type 3 receptors, e.g., CD11b) and/or glial fibrillary acidic protein (GFAP), microglial and astrocyte activation markers, respectively, were assessed. Sections (20 μm) were treated with 0.3% H2O2 in Tris-buffered saline (TBS) for 20 minutes at room temperature to suppress endogenous peroxidase activity. Sections were then incubated overnight at 4° C. in monoclonal mouse anti-rat OX-42 (1:100; Pharmingen, San Diego, Calif.) or monoclonal mouse anti-rat GFAP antibody (1:200; Chemicon, Temecula, Calif.) in TBS with 2% normal goat serum and 0.5% Triton-X-100. Subsequently, sections were incubated with the appropriate secondary biotinylated antibodies (1:400; Jackson ImmunoResearch, West Grove, Pa.) for 2 hours at room temperature, incubated in avidin -biotin complex solution (ABC; 1:200; Vector Laboratories, Burlingame, Calif.) for 2 hours at room temperature, followed by reaction with 0.5 mg/ml 3,3′-diaminobenzidine tetrahydrochloride (DAB; Sigma). Finally, sections were dried, dehydrated, and coverslipped with Permount. Staining was evaluated by light microscopy. Densitometry of immunohistochemical staining was subsequently evaluated using computer software (NIH image).
Test [3] concerns interleukin-1 mRNA. Description: mRNA analysis of brain nuclei by real-time PCR (Example 4). The format is in vivo, rat. As to conditions: morphine; dorsal and ventral periaqueductal grey region, FIG. 8. For orientation: In qPCR the cycle at which signal appears reflects the starting amount.
Procedure: Following scoring of withdrawal behaviors animals received an intraperitoneal injection of 0.8 ml of 50 mg/ml sodium pentobarbital, and once anesthetized, animals were transcardially perfused. Half of each treatment group were perfused with saline and half with 4% paraformaldehyde. Spinal cord and brains were collected (saline perfusion for protein and mRNA quantification and paraformaldehyde perfusion for immunohistochemistry). Samples collected from saline perfused animals were flash frozen in liquid nitrogen and stored at −80° C. Paraformaldehyde perfused samples were stored in 4% paraformaldehyde for 48 hours and then transferred to 30% sucrose (0.1% azide) until tissue sectioning.
Amplification of cDNA was performed using the [sequence] […] Linearity and efficiency of PCR amplification were assessed using standard curves generated by increasing amounts of cDNA. SYBR green l fluorescence (PCR product formation) was monitored in real time using the MYIQ single color real-time PCR detection system (Bio-Rad). […] Linearity and efficiency of PCR amplification were assessed using standard curves generated by increasing amounts of cDNA. SYBR green 1 fluorescence (PCR product formation) was monitored in real time using the MYIQ single color real-time PCR detection system (Bio-Rad). […]

With `C=CCN1CC[C@]23c4c5ccc(O)c4O[C@H]2C(=O)CC[C@@]3(O)[C@H]1C5` [naloxone], the “morphine-induced dopamine release after opioid antagonist” value in test [1] is listed as “reversed the morphine-induced dopamine release”.

Take `CN1CC[C@]23c4c5ccc(O)c4O[C@H]2[C@@H](O)C=C[C@H]3[C@H]1C5` [morphine]: the “CD11b staining after chronic administration” value in test [2] was “visible upregulation of the microglia activation marker CD11b”. Further, the “interleukin-1 mRNA” value in test [3] was “dramatic increase in interleukin-1 mRNA in the dorsal, but not the ventral periaqueductal grey region”.
